The structures appear in SMILES notation. pEC50: −log10 of the molar value.

The test system of the assay is C666-1 cells. The assay is described as follows: C666-1 Cell Viability Assay (Resazurin cytotoxicity test). It is filed as cell-based. Conditions: Homo sapiens, C6661, EB virus-positive C666-1 cells, 72 hours treatment, 100-0.78 micromole/L, read-out: Inhibitory Rate. A digest of the protocol:
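EBV-positive nasopharyngeal carcinoma C666-1 cells, 5×10^3 per well, were grown 24 h, then exposed to compound for 72 h at 37 °C (8-point two-fold dilutions, final 100–0.78 µM). Viability was read by resazurin reduction fluorescence after 3 h; EC50 came from the fitted inhibition curve.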
Regarding `O=C(NO)c1cccc(N2CC(Oc3ccc(CNc4cccnc4)cc3)C2)c1-c1cccc(Cl)c1` [Example 38b, 3′-chloro-N-hydroxy-6-(3-(4-((pyridin-3-ylamino)methyl)phenoxy)azetidin-1-yl)-[1,1′-biphenyl]-2-carboxamide], the pEC50 is above 6.00.

With `COC(=O)c1cccc(N2CC(Oc3ccc(CNc4cccnc4)cc3)C2)c1-c1ccccc1` [Example 39, methyl 6-(3-(4-((pyridin-3-ylamino)methyl)phenoxy)azetidin-1-yl)-[1,1′-biphenyl]-2-carboxylate], the pEC50 is below 4.30. As for `O=C(O)c1cccc(N2CC(Oc3ccc(CNc4cccnc4)cc3)C2)c1-c1ccccc1` [Example 39a, 6-(3-(4-((pyridin-3-ylamino)methyl)phenoxy)azetidin-1-yl)-[1,1′-biphenyl]-2-carboxylic acid], the figure is below 4.30; as for `O=C(NO)c1cccc(N2CC(Oc3ccc(CNc4cccnc4)cc3)C2)c1-c1ccccc1` [Example 39b, N-hydroxy-6-(3-(4-((pyridin-3-ylamino)methyl)phenoxy)azetidin-1-yl)-[1,1′-biphenyl]-2-carboxamide], above 6.00.

In the case of `COC(=O)c1cccc(N2CC(Oc3ccc(CC(=O)Nc4cccnc4)cc3)C2)c1-c1ccccc1` [Example 40, methyl 6-(3-(4-(2-oxo-2-(pyridin-3-ylamino)ethyl)phenoxy)azetidin-1-yl)-[1,1′-biphenyl]-2-carboxylate], the pEC50 is above 6.00. Under `O=C(Cc1ccc(OC2CN(c3cccc(C(=O)O)c3-c3ccccc3)C2)cc1)Nc1cccnc1` [Example 40a, 6-(3-(4-(2-oxo-2-(pyridin-3-ylamino)ethyl)phenoxy)azetidin-1-yl)-[1,1′-biphenyl]-2-carboxylic acid] stands 5.00 to 6.00.

With `O=C(Cc1ccc(OC2CN(c3cccc(C(=O)NO)c3-c3ccccc3)C2)cc1)Nc1cccnc1` [Example 40b, N-hydroxy-6-(3-(4-(2-oxo-2-(pyridin-3-ylamino)ethyl)phenoxy)azetidin-1-yl)-[1,1′-biphenyl]-2-carboxamide], the pEC50 was above 6.00.

In the case of `CNC(=O)c1cccc(N2CC(Oc3ccc(CC(=O)Nc4cccnc4)cc3)C2)c1-c1ccccc1` [Example 40c, N-methyl-6-(3-(4-(2-oxo-2-(pyridin-3-ylamino)ethyl)phenoxy)azetidin-1-yl)-[1,1′-biphenyl]-2-carboxamide], the pEC50 was 5.00 to 6.00.

Take `COC(=O)c1cccc(N2CC(Oc3ccc(NC(=O)Nc4cccnc4)cc3)C2)c1-c1cccc(Cl)c1` [Example 41, methyl 3′-chloro-6-(3-(4-(3-(pyridin-3-yl)ureido)phenoxy)azetidin-1-yl)-[1,1′-biphenyl]-2-carboxylate]: the pEC50 is above 6.00. Under `O=C(Nc1ccc(OC2CN(c3cccc(C(=O)O)c3-c3cccc(Cl)c3)C2)cc1)Nc1cccnc1` [Example 41a, 3′-chloro-6-(3-(4-(3-(pyridin-3-yl)ureido)phenoxy)azetidin-1-yl)-[1,1′-biphenyl]-2-carboxylic acid] stands 5.00 to 6.00; under `O=C(Nc1ccc(OC2CN(c3cccc(C(=O)NO)c3-c3cccc(Cl)c3)C2)cc1)Nc1cccnc1` [Example 41b, 3′-chloro-N-hydroxy-6-(3-(4-(3-(pyridin-3-yl)ureido)phenoxy)azetidin-1-yl)-[1,1′-biphenyl]-2-carboxamide], above 6.00; under `COC(=O)c1cccc(N2CC(Oc3ccc(NC(=O)Nc4cccnc4)cc3)C2)c1-c1ccccc1` [Example 42, methyl 6-(3-(4-(3-(pyridin-3-yl)ureido)phenoxy)azetidin-1-yl)-[1,1′-biphenyl]-2-carboxylate], above 6.00. With `O=C(Nc1ccc(OC2CN(c3cccc(C(=O)O)c3-c3ccccc3)C2)cc1)Nc1cccnc1` [Example 42a, 6-(3-(4-(3-(pyridin-3-yl)ureido)phenoxy)azetidin-1-yl)-[1,1′-biphenyl]-2-carboxylic acid], the pEC50 was 5.00 to 6.00. Turning to `O=C(Nc1ccc(OC2CN(c3cccc(C(=O)NO)c3-c3ccccc3)C2)cc1)Nc1cccnc1` [Example 42b, N-hydroxy-6-(3-(4-(3-(pyridin-3-yl)ureido)phenoxy)azetidin-1-yl)-[1,1′-biphenyl]-2-carboxamide], the pEC50 was above 6.00. As for `CNC(=O)c1cccc(N2CC(Oc3ccc(NC(=O)Nc4cccnc4)cc3)C2)c1-c1ccccc1` [Example 42c, N-methyl-6-(3-(4-(3-(pyridin-3-yl)ureido)phenoxy)azetidin-1-yl)-[1,1′-biphenyl]-2-carboxamide], the figure is above 6.00; as for `COC(=O)c1cccc(N2CC(Oc3ccc(CC(=O)Nc4cccnc4)cc3)C2)c1` [Example 43, methyl 3-(3-(4-(2-oxo-2-(pyridin-3-ylamino)ethyl)phenoxy)azetidin-1-yl) benzoate], 5.00 to 6.00; as for `O=C(Cc1ccc(OC2CN(c3cccc(C(=O)O)c3)C2)cc1)Nc1cccnc1` [Example 43a, 3-(3-(4-(2-oxo-2-(pyridin-3-ylamino)ethyl)phenoxy)azetidin-1-yl) benzoic acid], 5.00 to 6.00.

With `O=C(Cc1ccc(OC2CN(c3cccc(C(=O)NO)c3)C2)cc1)Nc1cccnc1` [Example 43b, N-hydroxy-3-(3-(4-(2-oxo-2-(pyridin-3-ylamino)ethyl)phenoxy)azetidin-1-yl) benzamide], the pEC50 was above 6.00. As for `O=C(Cc1ccc(OC2CN(c3ccccc3)C2)cc1)Nc1cccnc1` [Example 43c, 2-(4-((1-phenylazetidin-3-yl)oxy)phenyl)-N-(pyridin-3-yl) acetamide], the figure is 4.30 to 5.00; as for `COC(=O)c1cccc(N2CC(Oc3ccc(CC(=O)Nc4cccnc4)cc3)C2)c1-c1ccc2cc[nH]c2c1` [Example 44, methyl 2-(1H-indol-6-yl)-3-(3-(4-(2-oxo-2-(pyridin-3-ylamino)ethyl)phenoxy)azetidin-1-yl) benzoate], above 6.00.

On to `O=C(Cc1ccc(OC2CN(c3cccc(C(=O)O)c3-c3ccc4cc[nH]c4c3)C2)cc1)Nc1cccnc1` [Example 44a, 2-(1H-indol-6-yl)-3-(3-(4-(2-oxo-2-(pyridin-3-ylamino)ethyl)phenoxy)azetidin-1-yl) benzoic acid], for which the pEC50 is 5.00 to 6.00. Regarding `COC(=O)c1cccc(N2CC(Oc3ccc(NC(=O)Cc4cccnc4)cc3)C2)c1-c1ccccc1` [Example 45, methyl 6-(3-(4-(2-(pyridin-3-yl)acetamido)phenoxy)azetidin-1-yl)-[1,1′-biphenyl]-2-carboxylate], the pEC50 was above 6.00. As for `O=C(Cc1cccnc1)Nc1ccc(OC2CN(c3cccc(C(=O)O)c3-c3ccccc3)C2)cc1` [Example 45a, 6-(3-(4-(2-(pyridin-3-yl)acetamido)phenoxy)azetidin-1-yl)-[1,1′-biphenyl]-2-carboxylic acid], the figure is 4.30 to 5.00; as for `O=C(Cc1cccnc1)Nc1ccc(OC2CN(c3cccc(C(=O)NO)c3-c3ccccc3)C2)cc1` [Example 45b, N-hydroxy-6-(3-(4-(2-(pyridine-3-yl)acetamido)phenoxy)azetidin-1-yl)-[1,1′-biphenyl]-2-carboxamide], above 6.00. As for `CNC(=O)c1cccc(N2CC(Oc3ccc(NC(=O)Cc4cccnc4)cc3)C2)c1-c1ccccc1` [Example 45c, N-methyl-6-(3-(4-(2-(pyridin-3-yl)acetamido)phenoxy)azetidin-1-yl)-[1,1′-biphenyl]-2-carboxamide], the figure is above 6.00.

With `CONC(=O)c1cccc(N2CC(Oc3ccc(NC(=O)Cc4cccnc4)cc3)C2)c1-c1ccccc1` [Example 45d, N-methoxy-6-(3-(4-(2-(pyridin-3-yl)acetamido)phenoxy)azetidin-1-yl)-[1,1′-biphenyl]-2-carboxamide], the pEC50 is 4.30 to 5.00. Under `O=C(Cc1cccnc1)Nc1ccc(OC2CN(c3ccccc3-c3ccccc3)C2)cc1` [Example 45e, N-(4-((1-([1,1′-biphenyl]-2-yl)azetidin-3-yl)oxy)phenyl)-2-(pyridin-3-yl)acetamide] stands 4.30 to 5.00; under `COC(=O)c1cccc(N2CC(Oc3ccc(NC(=O)Nc4cncc(F)c4)cc3)C2)c1-n1cccc1` [Example 46, methyl 3-(3-(4-(3-(5-fluoropyridin-3-yl)ureido)phenoxy)azetidin-1-yl)-2-(1H-pyrrol-1-yl) benzoate], 5.00 to 6.00; under `O=C(Nc1ccc(OC2CN(c3cccc(C(=O)O)c3-n3cccc3)C2)cc1)Nc1cncc(F)c1` [Example 46a, 3-(3-(4-(3-(5-fluoropyridin-3-yl)ureido)phenoxy)azetidin-1-yl)-2-(1H-pyrrol-1-yl) benzoic acid], 5.00 to 6.00.

With `COC(=O)c1cccc(N2CC(Oc3ccc(NC(=O)Nc4cncc(C)c4)cc3)C2)c1-n1cccc1` [Example 47, methyl 3-(3-(4-(3-(5-methylpyridin-3-yl)ureido)phenoxy)azetidin-1-yl)-2-(1H-pyrrol-1-yl) benzoate], the pEC50 is 4.30 to 5.00. Under `Cc1cncc(NC(=O)Nc2ccc(OC3CN(c4cccc(C(=O)O)c4-n4cccc4)C3)cc2)c1` [Example 47a, 3-(3-(4-(3-(5-methylpyridin-3-yl)ureido)phenoxy)azetidin-1-yl)-2-(1H-pyrrol-1-yl) benzoic acid] stands above 6.00. Under `COC(=O)c1cccc(N2CC(Oc3ccc(NC(=O)Cc4cccnc4)cc3)C2)c1-c1cccc(Cl)c1` [Example 48, methyl 3′-chloro-6-(3-(4-(2-(pyridin-3-yl)acetamido)phenoxy)azetidin-1-yl)-[1,1′-biphenyl]-2-carboxylate] stands above 6.00; under `O=C(Cc1cccnc1)Nc1ccc(OC2CN(c3cccc(C(=O)O)c3-c3cccc(Cl)c3)C2)cc1` [Example 48a, 3′-chloro-6-(3-(4-(2-(pyridin-3-yl)acetamido)phenoxy)azetidin-1-yl)-[1,1′-biphenyl]-2-carboxylic acid], 4.30 to 5.00. Under `COC(=O)c1cccc(N2CC(Oc3ccc(NC(=O)Cc4cccnc4)cc3)C2)c1` [Example 49, methyl 3-(3-(4-(2-(pyridin-3-yl)acetamido)phenoxy)azetidin-1-yl) benzoate] stands 5.00 to 6.00.

These data come from US20240308987A1, “SMALL MOLECULE INHIBITOR AGAINST NASOPHARYNGEAL CARCINOMA, PREPARATION METHOD AND APPLICATION THEREOF” (SHENZHEN BAY LABORATORY, priority 2021, published 2024).
